How the values were obtained:
[1] = in vivo; cited from earlier work
5HT reuptake = conditions: therapeutic models, WO 01/14330; cited from earlier work
[2] = Comparative equilibrium solubility of salts of compound 1; conditions: pH listed with the equilibrium solubility
D2 receptors = D2 receptors (Homo sapiens, UniProt P14416); conditions: therapeutic models, WO 01/14330; cited from earlier work
rodents = conditions: cited from earlier work

D2 receptors, sequence (P14416 whole entry): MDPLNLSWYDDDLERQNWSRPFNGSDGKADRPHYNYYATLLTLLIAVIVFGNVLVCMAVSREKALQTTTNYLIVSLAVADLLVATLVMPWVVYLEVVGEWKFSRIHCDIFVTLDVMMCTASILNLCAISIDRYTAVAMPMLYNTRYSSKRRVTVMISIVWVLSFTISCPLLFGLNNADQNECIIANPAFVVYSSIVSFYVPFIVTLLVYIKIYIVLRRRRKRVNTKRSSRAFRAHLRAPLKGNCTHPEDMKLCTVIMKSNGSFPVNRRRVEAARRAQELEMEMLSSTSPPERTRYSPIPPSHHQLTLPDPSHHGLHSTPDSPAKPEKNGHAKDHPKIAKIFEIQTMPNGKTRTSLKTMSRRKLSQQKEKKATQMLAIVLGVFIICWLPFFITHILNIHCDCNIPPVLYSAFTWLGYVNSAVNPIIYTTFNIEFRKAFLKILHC

Row | SMILES | activity in therapeutic models sensitive to clinically relevant antipsychotics, antidepressants, anxiolytics, and Parkinson's disease [1] | inhibitory activity against 5HT reuptake (5HT reuptake) | pH ([2]; listed as freebase (1)) | antagonistic activity at D2 receptors (D2 receptors) | propensity to induce catalepsy (rodents) | pH ([2]; listed as glucuronate (2))
1 | CC1Oc2c(cccc2N2CCN(CCCc3c[nH]c4ccc(F)cc34)CC2)NC1=O (stereo not drawn) [compound 1, 8-{4-[3-(5-fluoro-1H-indol-3-yl)-propyl]-piperazin-1-yl}-2-methyl-4H-benzo[1,4]oxazin-3-one] | active | inhibitory activity against 5HT reuptake | 4.72 | antagonistic activity at D2 receptors | low propensity to induce catalepsy | –
2 | CC1Oc2c(cccc2N2CCN(CCCc3c[nH]c4ccc(F)cc34)CC2)NC1=O (stereo not drawn) [compound 2] | – | – | – | – | – | 4.25

Reference: patent US7709024B2, “Sustained-release formulation and uses thereof” (Solvay Pharmaceuticals B.V., priority 2005, dated 2010)
